Data: EPA's ToxRefDB 2

Tests used:
mouse [1] = settings: Combined chronic toxicity/carcinogenicity, b6c3f1, Oral, Water, dose end: 104 week, group: systemic
rat [2] = settings: Chronic toxicity, sprague dawley, Oral, Feed, dose end: 4 week, group: systemic
rat [3] = settings: Prenatal developmental toxicity study; wistar; Inhalation; Whole-Body; dose end: 19 GD; group: maternal; systemic / pathology gross / kidney / [other]
rat [4] = settings: Multigenerational reproductive toxicity study, sprague dawley, Inhalation, Whole-Body, dose end: 2 generation
rat [5] = settings: Combined chronic toxicity/carcinogenicity; sprague dawley; Oral; Feed; dose end: 104 week; group: systemic; systemic / in life observation / body weight / body weight + systemic / in life observation / body weight / body weight gain + systemic / in…
mouse [6] = settings: Carcinogenicity, cd1, Oral, Feed, dose end: 104 week, group: systemic
dog [7] = settings: Chronic toxicity, beagle, Oral, Gavage/Intubation, dose end: 6 month, group: systemic
rat [8] = settings: Combined chronic toxicity/carcinogenicity, sprague dawley, Oral, Feed, dose end: 108 week, group: systemic
rat [9] = settings: Multigenerational reproductive toxicity study, wistar, Oral, Feed, dose end: 2 generation
rat [10] = settings: Prenatal developmental toxicity study, wistar, Oral, Gavage/Intubation, dose end: 15 GD
rat [11] = settings: Subchronic oral toxicity in rodents, wistar, Feed, dose end: 3 month, group: systemic
dog [12] = settings: Subchronic oral toxicity in nonrodent, beagle, Feed, dose end: 100 day, group: systemic
rat [13] = settings: Carcinogenicity, other, Oral, Feed, dose end: 24 month, group: systemic
dog [14] = settings: Chronic toxicity; beagle; Oral; Feed; dose end: 371 day; group: systemic; systemic / clinical chemistry / alanine aminotransferase (alt/sgpt) / alanine aminotransferase (alt/sgpt) + systemic / clinical chemistry / …
mouse [15] = settings: Carcinogenicity; other; Oral; Feed; dose end: 18 month; group: systemic; systemic / in life observation / body weight / body weight + systemic / in life observation / body weight / body weight gain
rat [16] = settings: Chronic toxicity, wistar, Oral, Feed, dose end: 24 month, group: systemic
dog [17] = settings: Chronic toxicity, beagle, Oral, Feed, dose end: 373 day, group: systemic
mouse [18] = settings: Subchronic oral toxicity in rodents, b6c3f1, Feed, dose end: 90 day, group: systemic
[19] = systemic / in life observation / body weight / body weight
[20] = systemic / in life observation / body weight / body weight + systemic / in life observation / water consumption / water consumption
[21] = systemic / in life observation / body weight / body weight gain + systemic / in life observation / food consumption / food consumption
[22] = group: offspring, systemic / in life observation / body weight / offspring (pup) weight
[23] = group: parental, systemic / in life observation / body weight / body weight
[24] = group: reproductive, reproductive / reproductive performance / pregnancy / pregnancy
[25] = systemic / pathology microscopic / liver / pigmentation
[26] = systemic / organ weight / thyroid gland / absolute
[27] = systemic / organ weight / thyroid gland / absolute + systemic / hematology / platelet / platelet + systemic / in life observation / body …
[28] = systemic / pathology microscopic / adrenal gland / hyperplasia + systemic / pathology microscopic / thyroid gland / hyperplasia
[29] = systemic / pathology microscopic / adrenal gland / hyperplasia + systemic / pathology microscopic / thyroid gland / hyperplasia + systemic…
[30] = group: offspring, systemic / in life observation / body weight / offspring (pup) weight + systemic / in life observation / body weight / offspring (pup) …
[31] = group: parental, systemic / in life observation / body weight / body weight + systemic / in life observation / body weight / body weight gain + systemic / in…
[32] = group: developmental, developmental / developmental malformation / bone / unossified + developmental / developmental malformation / ureter / hydroureter + …
[33] = group: maternal, systemic / in life observation / food consumption / food consumption + reproductive / reproductive performance / resorptions / resorptions…
[34] = systemic / clinical chemistry / albumin / albumin + systemic / clinical chemistry / creatinine / creatinine + systemic / clinical chemistry…
[35] = systemic / clinical chemistry / creatinine / creatinine
[36] = systemic / pathology gross / prostate / reduced size
[37] = systemic / pathology microscopic / liver / polymorphism
[38] = systemic / pathology microscopic / liver / adenoma/carcinoma combined + systemic / pathology microscopic / liver / carcinoma + systemic / in…
[39] = systemic / pathology gross / urinary bladder / foci
[40] = systemic / pathology microscopic / heart / vacuolization + systemic / pathology microscopic / liver / hypertrophy
[41] = systemic / pathology microscopic / heart / vacuolization + systemic / pathology microscopic / liver / hypertrophy + systemic / clinical …

NCl [Chloramine]
LEL (mouse [1]; [19]): 6.67 mg/kg/day
NEL (mouse [1]; [19]): < 6.67 mg/kg/day
LOAEL (mouse [1]; [20]): > 26.7 mg/kg/day
NOAEL (mouse [1]; [20]): ≥ 26.7 mg/kg/day

CBr [Methyl bromide]
LOAEL (rat [2]; systemic / in life observation / body weight / body weight gain): 7.59 mg/kg/day
NEL (rat [2]; [21]): 0.082 mg/kg/day
NOAEL (rat [2]; [21]): 0.825 mg/kg/day
LEL (rat [2]; systemic / in life observation / food consumption / food consumption): 0.825 mg/kg/day
LEL (rat [3]): 70 ppm
LOAEL (rat [3]): 70 ppm
NEL (rat [3]): 20 ppm
NOAEL (rat [3]): 20 ppm
LEL (rat [4]; [22]): 30 ppm
LOAEL (rat [4]; [22]): 30 ppm
NEL (rat [4]; [22]): 3 ppm
NOAEL (rat [4]; [22]): 3 ppm
LOAEL (rat [4]; [23]): 90 ppm
NOAEL (rat [4]; [23]): 30 ppm
LEL (rat [4]; group: parental, systemic / in life observation / body weight / body weight + systemic / organ weight / liver / relative to body weight + systemic / organ …): 90 ppm
NEL (rat [4]; group: parental, systemic / organ weight / liver / relative to body weight): 30 ppm
LEL (rat [4]; [24]): 30 ppm
LOAEL (rat [4]; [24]): 30 ppm
NEL (rat [4]; [24]): 3 ppm
NOAEL (rat [4]; [24]): 3 ppm
LEL (rat [5]): 11.1 mg/kg/day
LOAEL (rat [5]): 11.1 mg/kg/day
NEL (rat [5]): 2.2 mg/kg/day
NOAEL (rat [5]): 2.2 mg/kg/day

COC(=O)NS(=O)(=O)c1ccc(N)cc1 [Asulam]
LOAEL (mouse [6]; systemic / in life observation / body weight / body weight gain + systemic / organ weight / spleen / nos): 8040 mg/kg/day
LEL (mouse [6]; [25]): 74 mg/kg/day
NEL (mouse [6]; [25]): < 74 mg/kg/day
NOAEL (mouse [6]; systemic / pathology microscopic / liver / pigmentation + systemic / in life observation / body weight / body weight gain + systemic / organ…): 730 mg/kg/day
LEL (dog [7]; [26]): 300 mg/kg/day
LOAEL (dog [7]; [26]): 300 mg/kg/day
NEL (dog [7]; [27]): 60 mg/kg/day
NOAEL (dog [7]; [27]): 60 mg/kg/day
LEL (rat [8]; [28]): 180 mg/kg/day
LOAEL (rat [8]; [28]): 180 mg/kg/day
NEL (rat [8]; [29]): 36 mg/kg/day
NOAEL (rat [8]; [29]): 36 mg/kg/day

CC/C(=N\OC/C=C/Cl)C1=C(O)CC(C2CCOCC2)CC1=O (stereo not drawn) [Tepraloxydim]
LEL (rat [9]; [30]): 267 mg/kg/day
LOAEL (rat [9]; [30]): 267 mg/kg/day
NEL (rat [9]; [30]): 50.3 mg/kg/day
NOAEL (rat [9]; [30]): 50.3 mg/kg/day
LEL (rat [9]; [31]): 253 mg/kg/day
LOAEL (rat [9]; [31]): 253 mg/kg/day
NEL (rat [9]; [31]): 50.9 mg/kg/day
NOAEL (rat [9]; [31]): 50.9 mg/kg/day
LEL (rat [10]; [32]): 120 mg/kg/day
LOAEL (rat [10]; [32]): 120 mg/kg/day
NEL (rat [10]; [32]): 40 mg/kg/day
NOAEL (rat [10]; [32]): 40 mg/kg/day
LOAEL (rat [10]; group: maternal, systemic / in life observation / food consumption / food consumption): 360 mg/kg/day
LEL (rat [10]; [33]): 360 mg/kg/day
NEL (rat [10]; [33]): 120 mg/kg/day
NOAEL (rat [10]; [33]): 120 mg/kg/day
LOAEL (rat [11]; [34]): 223 mg/kg/day
NOAEL (rat [11]; [34]): 22 mg/kg/day
LEL (rat [11]; [35]): 22 mg/kg/day
NEL (rat [11]; [35]): < 22 mg/kg/day
LOAEL (dog [12]; systemic / organ weight / liver / absolute + systemic / organ weight / liver / relative to body weight): 63.3 mg/kg/day
NOAEL (dog [12]; systemic / organ weight / liver / absolute + systemic / organ weight / liver / relative to body weight + systemic / clinical chemistry / …): 12.9 mg/kg/day
LEL (dog [12]; [36]): 12.9 mg/kg/day
NEL (dog [12]; [36]): < 12.9 mg/kg/day
LEL (rat [13]; systemic / pathology microscopic / liver / eosinophilic focus + systemic / pathology microscopic / liver / infiltration cellular): 30 mg/kg/day
NEL (rat [13]; systemic / pathology microscopic / liver / eosinophilic focus + systemic / pathology microscopic / liver / infiltration cellular + systemic…): 5 mg/kg/day
LOAEL (rat [13]; [37]): 6 mg/kg/day
NOAEL (rat [13]; [37]): < 6 mg/kg/day
LEL (dog [14]): 248 mg/kg/day
LOAEL (dog [14]): 248 mg/kg/day
NEL (dog [14]): < 248 mg/kg/day
NOAEL (dog [14]): < 248 mg/kg/day
LEL (mouse [15]): 52 mg/kg/day
LOAEL (mouse [15]): 52 mg/kg/day
NEL (mouse [15]): < 52 mg/kg/day
NOAEL (mouse [15]): < 52 mg/kg/day
LOAEL (rat [16]; [38]): 154 mg/kg/day
NEL (rat [16]; [38]): 5 mg/kg/day
NOAEL (rat [16]; [38]): 29 mg/kg/day
LEL (rat [16]; systemic / pathology microscopic / liver / carcinoma): 29 mg/kg/day
LOAEL (dog [17]; systemic / clinical chemistry / cholesterol / cholesterol + systemic / clinical chemistry / creatinine / creatinine + systemic / clinical …): 56 mg/kg/day
LEL (dog [17]; [39]): 3 mg/kg/day
NEL (dog [17]; [39]): < 3 mg/kg/day
NOAEL (dog [17]; systemic / pathology gross / urinary bladder / foci + systemic / clinical chemistry / cholesterol / cholesterol + systemic / clinical …): 11.5 mg/kg/day
LEL (mouse [18]; [40]): 310 mg/kg/day
LOAEL (mouse [18]; [40]): 310 mg/kg/day
NEL (mouse [18]; [41]): 82 mg/kg/day
NOAEL (mouse [18]; [41]): 82 mg/kg/day
